From the NIST ThermoML archive (doi:10.1021/acs.jced.7b00002)
Numbers after ± are expanded uncertainties.

Key:
[1] = 97.6 kPa, Liquid; for viscosity: Capillary tube (Ostwald / Ubbelohde) method; for mass density: Vibrating tube method
[2] = xn = mol fraction of the nth substance listed; details: 97.6 kPa, Liquid, x2 = 0; for viscosity: Capillary tube (Ostwald / Ubbelohde) method; for mass density: Vibrating tube method

CCCCCCCC[n+]1ccn(C)c1.[Cl-] [1-methyl-3-octylimidazolium chloride]
[1]
Details | mass density [kg/m3] | viscosity [mPa·s]
303.15 K | 1006.2 ± 2.2 | 7339.7
308.15 K | 1003.33 ± 2.1 | 4272.9
313.15 K | 1000.48 ± 2.1 | 2766.9
318.15 K | 997.64 ± 2.1 | 1788.6
323.15 K | 994.82 ± 2.1 | 1198.7
328.15 K | 992 ± 2.1 | 828.3
333.15 K | 989.17 ± 2.1 | 588.69
338.15 K | 986.38 ± 2.1 | 426.28
343.15 K | 983.63 ± 2.1 | 316.66
348.15 K | 980.88 ± 2.1 | 237.14
353.15 K | 978.13 ± 2.1 | 181.41

CC(=O)N(C)C [N,N-dimethylethanamide]
[1]
Details | mass density [kg/m3] | viscosity [mPa·s]
303.15 K | 931.85 ± 2 | 0.89
308.15 K | 927.26 ± 2 | 0.83
313.15 K | 922.66 ± 2 | 0.78
318.15 K | 918.06 ± 2 | 0.74
323.15 K | 913.44 ± 1.9 | 0.7
328.15 K | 908.81 ± 1.9 | 0.66
333.15 K | 904.16 ± 1.9 | 0.63
338.15 K | 899.53 ± 1.9 | 0.6
343.15 K | 894.87 ± 1.9 | 0.57
348.15 K | 890.19 ± 1.9 | 0.54
353.15 K | 885.51 ± 1.9 | 0.52

CC(=O)N(C)C [N,N-dimethylethanamide] + CCCCCCCC[n+]1ccn(C)c1.[Cl-]
[2]
Details | mass density [kg/m3] | viscosity [mPa·s]
303.15 K | 931.85 ± 2 | 0.89
308.15 K | 927.26 ± 2 | 0.83
313.15 K | 922.66 ± 2 | 0.78
318.15 K | 918.06 ± 2 | 0.74
323.15 K | 913.44 ± 1.9 | 0.7
328.15 K | 908.81 ± 1.9 | 0.66
333.15 K | 904.16 ± 1.9 | 0.63
338.15 K | 899.53 ± 1.9 | 0.6
343.15 K | 894.87 ± 1.9 | 0.57
348.15 K | 890.19 ± 1.9 | 0.54
353.15 K | 885.51 ± 1.9 | 0.52

C[S+](C)[O-] [dimethyl sulfoxide]
[1]
Details | mass density [kg/m3] | viscosity [mPa·s]
303.15 K | 1090.29 ± 2.2 | 1.8
308.15 K | 1085.28 ± 2.2 | 1.66
313.15 K | 1080.3 ± 2.2 | 1.53
318.15 K | 1075.31 ± 2.2 | 1.41
323.15 K | 1070.32 ± 2.2 | 1.3
328.15 K | 1065.33 ± 2.1 | 1.21
333.15 K | 1060.34 ± 2.1 | 1.13
338.15 K | 1055.34 ± 2.1 | 1.06
343.15 K | 1050.35 ± 2.1 | 0.99
348.15 K | 1045.34 ± 2.1 | 0.93
353.15 K | 1040.33 ± 2.1 | 0.88

C[S+](C)[O-] [dimethyl sulfoxide] + CCCCCCCC[n+]1ccn(C)c1.[Cl-]
[2]
Details | mass density [kg/m3] | viscosity [mPa·s]
303.15 K | 1090.29 ± 2.2 | 1.8
308.15 K | 1085.28 ± 2.2 | 1.66
313.15 K | 1080.3 ± 2.2 | 1.53
318.15 K | 1075.31 ± 2.2 | 1.41
323.15 K | 1070.32 ± 2.2 | 1.3
328.15 K | 1065.33 ± 2.1 | 1.21
333.15 K | 1060.34 ± 2.1 | 1.13
338.15 K | 1055.34 ± 2.1 | 1.06
343.15 K | 1050.35 ± 2.1 | 0.99
348.15 K | 1045.34 ± 2.1 | 0.93
353.15 K | 1040.33 ± 2.1 | 0.88

CN(C)C=O [dimethylformamide]
[1]
Details | mass density [kg/m3] | viscosity [mPa·s]
303.15 K | 939.18 ± 1.9 | 0.77
308.15 K | 934.41 ± 1.9 | 0.72
313.15 K | 929.64 ± 1.9 | 0.68
318.15 K | 924.86 ± 1.9 | 0.65
323.15 K | 920.07 ± 1.9 | 0.62
328.15 K | 915.26 ± 1.8 | 0.59
333.15 K | 910.44 ± 1.8 | 0.56
338.15 K | 905.6 ± 1.8 | 0.54
343.15 K | 900.74 ± 1.8 | 0.51
348.15 K | 895.87 ± 1.8 | 0.49
353.15 K | 890.98 ± 1.8 | 0.47

CN(C)C=O [dimethylformamide] + CCCCCCCC[n+]1ccn(C)c1.[Cl-]
[2]
Details | mass density [kg/m3] | viscosity [mPa·s]
303.15 K | 939.18 ± 1.9 | 0.77
308.15 K | 934.41 ± 1.9 | 0.72
313.15 K | 929.64 ± 1.9 | 0.68
318.15 K | 924.86 ± 1.9 | 0.65
323.15 K | 920.07 ± 1.9 | 0.62
328.15 K | 915.26 ± 1.8 | 0.59
333.15 K | 910.44 ± 1.8 | 0.56
338.15 K | 905.6 ± 1.8 | 0.54
343.15 K | 900.74 ± 1.8 | 0.51
348.15 K | 895.87 ± 1.8 | 0.49
353.15 K | 890.98 ± 1.8 | 0.47

c1ccncc1 [pyridine]
[1]
Details | mass density [kg/m3] | viscosity [mPa·s]
303.15 K | 973.09 ± 1.9 | 0.84
308.15 K | 968.06 ± 1.9 | 0.79
313.15 K | 963.02 ± 1.9 | 0.74
318.15 K | 957.97 ± 1.9 | 0.7
323.15 K | 952.9 ± 1.9 | 0.66
328.15 K | 947.82 ± 1.9 | 0.62
333.15 K | 942.72 ± 1.9 | 0.59
338.15 K | 937.6 ± 1.9 | 0.56
343.15 K | 932.46 ± 1.9 | 0.53
348.15 K | 927.3 ± 1.9 | 0.51
353.15 K | 922.12 ± 1.9 | 0.48

c1ccncc1 [pyridine] + CCCCCCCC[n+]1ccn(C)c1.[Cl-]
[2]
Details | mass density [kg/m3] | viscosity [mPa·s]
303.15 K | 973.09 ± 1.9 | 0.84
308.15 K | 968.06 ± 1.9 | 0.79
313.15 K | 963.02 ± 1.9 | 0.74
318.15 K | 957.97 ± 1.9 | 0.7
323.15 K | 952.9 ± 1.9 | 0.66
328.15 K | 947.82 ± 1.9 | 0.62
333.15 K | 942.72 ± 1.9 | 0.59
338.15 K | 937.6 ± 1.9 | 0.56
343.15 K | 932.46 ± 1.9 | 0.53
348.15 K | 927.3 ± 1.9 | 0.51
353.15 K | 922.12 ± 1.9 | 0.48
